Tested on: panel of 55 breast cancer cell lines
Test: Cell growth inhibition assay (Cell Titer Glo, 72 h, 9 doses; GI50, TGI, LC50)
Format: cell-based, human
Conditions: value is the negative log10 of mol/L
[1] = AU565 cell line, censored GI50 values
[2] = BT474 cell line, censored GI50 values
[3] = CAMA1 cell line, censored GI50 values
[4] = HCC1143 cell line, censored GI50 values
[5] = HCC1187 cell line, censored GI50 values
[6] = HCC1395 cell line, censored GI50 values
[7] = HCC1419 cell line, censored GI50 values
[8] = HCC1428 cell line, censored GI50 values
[9] = HCC1500 cell line, censored GI50 values

O=C1C(Cl)=C(NCCN2CCOCC2)C(=O)c2ncccc21 [NSC 663284]
GI50 (600MPE cell line, censored GI50 values): 5.34
GI50 [1]: 5.81
GI50 (BT20 cell line, censored GI50 values): 5.48
GI50 [2]: 5.56
GI50 (BT483 cell line, censored GI50 values): 6.02
GI50 [3]: 5.58
GI50 [4]: 5.70
GI50 [5]: 5.68
GI50 [6]: 6.16
GI50 [7]: 5.72
GI50 [8]: 5.59
GI50 [9]: 5.42
GI50 (HCC1937 cell line, censored GI50 values): 6.07
GI50 (HCC1954 cell line, censored GI50 values): 5.22
GI50 (cell line 600MPE): 5.34
GI50 (cell line AU565): 5.81
GI50 (cell line BT20): 5.48
GI50 (cell line BT474): 5.56
GI50 (cell line BT483): 6.02
GI50 (cell line CAMA1): 5.58
GI50 (cell line HCC38): 5.64
GI50 (cell line HCC70): 5.51
GI50 (cell line HCC1143): 5.70
GI50 (cell line HCC1187): 5.68
GI50 (cell line HCC1395): 6.16
GI50 (cell line HCC1419): 5.72
GI50 (cell line HCC1428): 5.59
GI50 (cell line HCC1500): 5.42
GI50 (cell line HCC1937): 6.07
GI50 (cell line HCC1954): 5.22
GI50 (cell line HCC2185): 5.96
GI50 (cell line HCC3153): 5.73
GI50 (cell line LY2): 6.27
GI50 (cell line MCF7): 5.43
GI50 (cell line MDAMB134V): 5.24
GI50 (cell line MDAMB175V): 5.22
GI50 (cell line MDAMB361): 5.14
GI50 (cell line MDAMB415): 5.59
GI50 (cell line MDAMB453): 5.26
GI50 (cell line MDAMB468): 5.19
GI50 (cell line SKBR3): 5.86
GI50 (cell line SUM52PE): 5.61
GI50 (cell line SUM149PT): 5.74
GI50 (cell line SUM159PT): 5.64
GI50 (cell line SUM185PE): 6.50
GI50 (cell line SUM225CWN): 5.66
GI50 (cell line SUM1315MO): 6.00
GI50 (cell line T47D): 5.19
GI50 (cell line UACC812): 5.43
GI50 (cell line ZR75B): 5.26
GI50 (cell line ZR751): 5.73

NS(=O)(=O)c1ccc(Nc2nc(OCC3CCCCC3)c3[nH]cnc3n2)cc1 [NU6102]
GI50 [1]: 4.64
GI50 [2]: 4.56
GI50 [3]: 4.91
GI50 [4]: 4.87
GI50 [5]: 5.11
GI50 [6]: 5.24
GI50 [7]: 4.54
GI50 [8]: 4.87
GI50 [9]: 4.78
GI50 (HCC1806 cell line, censored GI50 values): 4.64
GI50 (cell line AU565): 4.64
GI50 (cell line BT20): 4.23
GI50 (cell line BT474): 4.56
GI50 (cell line BT483): 4.18
GI50 (cell line CAMA1): 4.91
GI50 (cell line HCC38): 5.03
GI50 (cell line HCC70): 4.69
GI50 (cell line HCC1143): 4.87
GI50 (cell line HCC1187): 5.11
GI50 (cell line HCC1395): 5.24
GI50 (cell line HCC1419): 4.54
GI50 (cell line HCC1428): 4.87
GI50 (cell line HCC1500): 4.78
GI50 (cell line HCC1806): 4.64
GI50 (cell line HCC1937): 4.27
GI50 (cell line HCC1954): 4.34
GI50 (cell line HCC2185): 4.85
GI50 (cell line HCC3153): 4.81
GI50 (cell line LY2): 4.32
GI50 (cell line MCF7): 4.39
GI50 (cell line MDAMB134V): 4.34
GI50 (cell line MDAMB175V): 4.26
GI50 (cell line MDAMB361): 4.77
GI50 (cell line MDAMB415): 4.46
GI50 (cell line MDAMB436): 4.28
GI50 (cell line MDAMB453): 4.91
GI50 (cell line MDAMB468): 4.85
GI50 (cell line SKBR3): 4.51
GI50 (cell line SUM52PE): 5.27
GI50 (cell line SUM149PT): 5.08
GI50 (cell line SUM159PT): 4.90
GI50 (cell line SUM185PE): 5.53
GI50 (cell line SUM225CWN): 4.30
GI50 (cell line SUM1315MO): 5.40
GI50 (cell line T47D): 4.82
GI50 (cell line UACC812): 4.42
GI50 (cell line ZR75B): 4.85
GI50 (cell line ZR751): 4.76

From US10770169B2, “Method of providing a treatment to a subject based on a dynamic pathway map” (THE REGENTS OF THE UNIVERSITY OF CALIFORNIA, priority 2010, dated 2020)
